The values below come from US20180116976A1, “METHODS AND COMPOSITIONS FOR UNWANTED OR ABNORMAL MUSCLE CONTRACTIONS” (Flex Pharma, Inc., priority 2015, published 2018).

The subject of test [1] is flexor hallucis brevis muscle. The test is described as follows: Electrically induced flexor hallucis brevis cramp, surface EMG AUC over 140 seconds, additional beverage study (Example 3). The test is classed as in vivo, human. The settings on record: 29 mg, 140 second observation period; FIG. 10. The protocol: An additional study was carried out comparing exemplary compounds and combinations thereof as summarized in Table 3 below, each administered as a beverage formulation.
Cramp intensity was assessed by integrating the area under the curve (AUC) of a surface EMG signal over a 140 second observation period post electrical induction of a cramp in the flexor hallucis brevis muscle as previously described. […] The overall change between the pre-treatment baseline and mean vehicle control response was minimal.

Test [2] relates to human dorsal root ganglion neurons. The test is described as follows: Calcium flux (ΔF/F) in human dorsal root ganglion neurons ex vivo, TRPV1/TRPA1 activation. The settings on record: calcium-sensitive dye, FIG. 1. In kind it is cell-based. The protocol:
Selective TRPV1 and TRPA1 activation responses were measured for exemplary compositions of the invention in human dorsal root ganglion neurons ex vivo and compared with TRPV1/TRPA1 co-activation responses. The degree of neuron activation was assessed by inward calcium flux using neurons preloaded with a calcium-sensitive fluorescent dye. Intracellular cellular calcium levels were then monitored by wide-field fluorescent microscopy. The change in intracellular fluorescence relative to baseline fluorescence (ΔF/F) was quantified, and the results are shown in FIG. 1.
(In general: A change in cytosolic calcium serves as a functional read-out for many receptors and channels.)

Test [3] concerns flexor hallucis brevis muscle. As to the kind of experiment: Externally-induced cramping of the flexor hallucis brevis muscle, 6-shogaol orally disintegrating tablet (Example 4). The test is classed as in vivo, human. To be noted: ODT. The protocol: The goal of this study was to assess the effectiveness of 6-shogaol formulated as an orally disintegrating tablet (ODT) in the prevention of externally-induced cramping of the flexor hallucis brevis muscle of the foot. The study was carried in two parts. The first part was an open label, placebo-controlled, 5-visit study evaluating vehicle (lactose and sucrose), 0.5 mg, 2.5 mg, 10/6.9 mg, and 40/33 mg 6-shogaol. The second part was a randomized, single-blind, placebo-controlled, 4-visit study evaluating vehicle (lactose and sucrose), 0.5 mg, 20/18.5 mg, and 60/55.5 mg 6-shogaol. Screening of subjects occurred within 28 days in a similar manner as described above in Example 1. Note that dosage values separated by a “/” indicate the nominal versus the actual doses as determined by Chromadex.
The collected EMG data was analyzed for the baseline adjusted integrated EMG (IEMG) level, also referred to as area under the curve (AUC), and cramp duration, as described in Example 1. FIG. 11 and FIG. 12 summarize the average change and ratio in AUC values for all subjects compared by administered treatment both parts of the study. […] The data in FIG. 15 and FIG. 16 further support these findings.

On to `CCCCC/C=C/C(=O)CCc1ccc(O)c(OC)c1` [Treatment 6-shogaol, 6-shogaol], for which, in test [1], the “decrease in cramp intensity compared to other treatments tested” value is “greater decrease”. Besides, the “reduction in AUC compared to its study specific vehicle control” value in test [1] is reported as 5 fold. Moreover, in test [2], the “neuron activation response, change in intracellular fluorescence relative to baseline (ΔF/F)” value is reported as “synergistic response”. Further, the cramp inhibition entry in test [3] (0.5 mg dosage level) is recorded as “no efficacy”; in test [3] (2.6 mg dosage level), “no efficacy”; in test [3] (6.9 mg), “roughly 40%”; in test [3] (33 mg dosage level), 75%; in test [3] (55 mg dosage level), 75%. Moreover, the “time over which cramp inhibition was sustained” value in test [3] (33 mg and 55 mg dosage levels) was no less than 8 h.
In the case of `CCCCCC(O)CC(=O)CCc1ccc(O)c(OC)c1` (stereo not shown) [Treatment 6-gingerol, 6-gingerol], the “neuron activation response, change in intracellular fluorescence relative to baseline (ΔF/F)” value in test [2] is given as “synergistic response”.
